Reference: patent US20250115612A1, “CERTAIN 2,5-DIAZABICYCLO[4.2.0]OCTANES AND OCTAHYDROFURO[3,4-B]PYRAZINES AS GLP-1 RECEPTOR MODULATORS” (ASTRAZENECA AB, priority 2021, published 2025)

Assays:
human GLP-1R receptor = biological target: T1, human GLP-1R receptor (Homo sapiens, UniProt P43220, L260F); assay: CHOK1 GLP-1R cAMP assay (HTRF); type: cell-based; conditions: CHO-K1 cells stably expressing human GLP-1R
T1 construct: expressed in transfected cells; host or cells: CHO-K1 (ATCC CCL-61)
Method in brief: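 Cells were CHO-K1 stably expressing human GLP-1R (Leu260Phe variant), at 800 cells/well in HEPES pH 7.4/HBSS/0.1% BSA with IBMX, stimulated 20 min at rt. cAMP was measured by competitive HTRF and converted via a standard curve. EC50 came from a 4-parameter logistic fit, with % effect relative to a saturating GLP-1(7-36)NH2 concentration.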

GLP-1R = biological target: T2, GLP-1R (Homo sapiens, UniProt P43220); assay: EndoC cAMP accumulation assay (HTRF, EndoC-βH1 cells); type: cell-based; conditions: EndoC-βH1 human pancreatic β cell line
T2 construct: host or cells: EndoC-βH1
Method in brief: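 Thawed cryopreserved EndoC-βH1 cells, about 3000 per well, were stimulated for 30 min at room temperature. Buffer was HBSS with 25 mM HEPES pH 7.4, 0.1% BSA and 0.5 mM IBMX. cAMP was measured by competitive HTRF after 1 h lysis/detection (590/660 nm). Four-parameter fits gave % activation between basal and maximal GIP (82.5 nM) signal.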

[1] = biological target: T3, human phosphodiesterase-3A (Homo sapiens, UniProt Q14432); assay: PDE3 assay (formation of 5'AMP from cAMP, SPA); type: biochemical; conditions: human recombinant enzyme expressed in Sf9 cells
T3 construct: host or cells: Sf9 (Spodoptera frugiperda)
Experimental: Evaluation of the effects of compounds on the activity of the human phosphodiesterase-3A is quantified by measuring the formation of 5′AMP from cAMP using a human recombinant enzyme expressed in a clonal isolate of Spodoptera frugiperda cells (Sf9) cells.
The test compound, reference compound or water (control) are added to a buffer containing 40 mM tris(hydroxymethyl)aminomethane (Tris)/HCl (pH 7.4) and 8 mM MgCl2, 450 nMcAMP and 0.25 μCi [3H]cAMP.
Thereafter, the reaction is initiated by addition of the enzyme (about 1 U) and the mixture is incubated for 20 min at 22° C.
For basal control measurements, the enzyme is omitted from the reaction mixture.
Following incubation SPA beads are added. After 30 min at 22° C. under shaking, the amount of [^3H]5′AMP is quantified with a scintillation counter (Topcount, Packard).
The results are expressed as a percent inhibition of the control enzyme activity. The standard inhibitory reference compound is milrinone (CAS number 78415-72-2), which is tested in each experiment at several concentrations to obtain an inhibition curve from which its IC50 value is calculated.

T3 sequence (Q14432 whole entry): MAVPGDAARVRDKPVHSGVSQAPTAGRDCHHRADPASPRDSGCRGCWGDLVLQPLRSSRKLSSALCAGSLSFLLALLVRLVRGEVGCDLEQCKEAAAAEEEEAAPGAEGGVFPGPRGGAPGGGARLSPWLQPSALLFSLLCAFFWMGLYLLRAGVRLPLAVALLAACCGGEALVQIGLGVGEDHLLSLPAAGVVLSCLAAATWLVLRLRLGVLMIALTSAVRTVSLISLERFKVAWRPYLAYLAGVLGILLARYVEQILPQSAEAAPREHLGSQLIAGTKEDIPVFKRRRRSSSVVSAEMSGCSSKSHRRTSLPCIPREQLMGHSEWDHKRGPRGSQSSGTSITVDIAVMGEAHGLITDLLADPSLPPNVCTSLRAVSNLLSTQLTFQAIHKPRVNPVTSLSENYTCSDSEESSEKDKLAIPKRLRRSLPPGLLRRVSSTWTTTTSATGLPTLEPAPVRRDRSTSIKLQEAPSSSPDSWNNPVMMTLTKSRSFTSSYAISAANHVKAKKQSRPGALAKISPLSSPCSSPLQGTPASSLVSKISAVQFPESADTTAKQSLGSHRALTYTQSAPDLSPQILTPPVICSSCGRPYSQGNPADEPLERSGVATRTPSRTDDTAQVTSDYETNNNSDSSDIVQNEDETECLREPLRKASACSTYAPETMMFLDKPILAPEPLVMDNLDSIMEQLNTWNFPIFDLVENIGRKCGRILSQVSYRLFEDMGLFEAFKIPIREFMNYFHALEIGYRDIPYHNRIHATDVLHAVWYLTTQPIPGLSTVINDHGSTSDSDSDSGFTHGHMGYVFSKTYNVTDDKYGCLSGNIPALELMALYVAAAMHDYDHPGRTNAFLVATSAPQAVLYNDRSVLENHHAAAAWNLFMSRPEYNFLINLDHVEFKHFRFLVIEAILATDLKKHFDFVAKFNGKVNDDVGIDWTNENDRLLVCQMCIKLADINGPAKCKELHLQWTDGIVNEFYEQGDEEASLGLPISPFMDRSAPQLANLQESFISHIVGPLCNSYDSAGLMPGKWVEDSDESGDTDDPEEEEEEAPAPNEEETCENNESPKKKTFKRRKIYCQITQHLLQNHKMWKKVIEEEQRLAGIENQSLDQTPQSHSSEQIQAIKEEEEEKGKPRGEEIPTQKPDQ
T1 sequence (P43220 24-463 L260F): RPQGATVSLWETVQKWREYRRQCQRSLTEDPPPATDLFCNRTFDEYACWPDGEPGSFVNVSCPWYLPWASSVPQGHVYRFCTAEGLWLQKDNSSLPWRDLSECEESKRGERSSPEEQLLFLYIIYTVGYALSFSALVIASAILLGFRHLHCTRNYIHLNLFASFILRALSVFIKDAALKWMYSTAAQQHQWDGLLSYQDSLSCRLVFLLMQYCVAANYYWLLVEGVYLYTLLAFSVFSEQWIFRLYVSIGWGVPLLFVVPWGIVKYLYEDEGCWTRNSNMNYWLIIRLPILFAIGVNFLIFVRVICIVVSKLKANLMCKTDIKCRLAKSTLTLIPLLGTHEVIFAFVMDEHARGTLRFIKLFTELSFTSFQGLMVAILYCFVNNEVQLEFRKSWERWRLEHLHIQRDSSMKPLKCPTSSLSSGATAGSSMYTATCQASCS
T2 sequence (P43220 24-463): as the sequence (P43220 24-463 L260F) above, with F237L counted along it

EC50 (human GLP-1R receptor): 2.1 nM
EC50 (GLP-1R): 27 nM
IC50 [1]: 4600 nM
SMILES: N#Cc1ccc(COc2cccc(N3CCN(Cc4nc5cc(F)c(C(=O)O)cc5n4C[C@@H]4CCO4)[C@H]4CC[C@@H]43)n2)c(F)c1 (single isomer, unassigned) [Example 9b]
